Measurements taken from PMC3011871, “Purification and Biochemical Characterization of a Specific β-Glucosidase from the Digestive Fluid of Larvae of the Palm Weevil, Rhynchophorus palmarum” (Journal of Insect Science, 2009).

Key:
[1] = test system: T1, β-glucosidase from the digestive fluid of Rhynchophorus palmarum larvae; assay: glucose release by glucose oxidase-peroxidase, Lineweaver-Burk; assay type: biochemical; conditions: 100 mM acetate buffer pH 5.0, 37°C
T1 construct: gene cellobiase; native, purified from larval digestive fluid (Abidjan, Côte d'Ivoire); monomer, 58 kDa SDS-PAGE, 60 kDa gel filtration
From the text: glucose release by glucose oxidase-peroxidase, Lineweaver-Burk on β-glucosidase from the digestive fluid of Rhynchophorus palmarum larvae

[2] = test system: T1, β-glucosidase from the digestive fluid of Rhynchophorus palmarum larvae; assay: p-nitrophenol release at […] nm, Lineweaver-Burk; assay type: biochemical; conditions: 100 mM acetate buffer pH 5.0, 37°C

| SMILES | Km [1] | Km [2] |
| --- | --- | --- |
| OC[C@H]1O[C@@H](O[C@H]2[C@H](O)[C@@H](O)C(O)O[C@@H]2CO)[C@H](O)[C@@H](O)[C@@H]1O (some centres unmarked) [cellobiose] | 310 µM |  |
| O=[N+]([O-])c1ccc(O[C@@H]2O[C@H](CO)[C@@H](O)[C@H](O)[C@H]2O)cc1 [p-nitrophenyl-β-D-glucopyranoside] |  | 250 µM |
